{"source": "patent US20260191925A2", "about": "“TISSUE OCCLUDING AGENT COMPRISING AN IEIKIEIKIEIKI PEPTIDE” (3-D Matrix, Ltd., priority 2008, published 2026)", "key": {"rabbit hepatic incision": {"test_system": "rabbit hepatic incision", "assay": "Rabbit hepatic transection model (Example 9)", "type": "in vivo", "conditions": "1% solution, 1 minute after treatment, after rinsing with physiological saline", "experimental": "(§1) The rabbits were subcutaneously administered (3 mg/kg) Celactar 2% injection (2.0 g content as xylazine in 100 mL, product of Bayer Ltd.), and then ketamine (50 mg content as ketamine in 1 mL, product of Fuji Chemical Industries, Ltd.) was intravenously administered (10 mg/kg) for anesthesia.\nThe rabbits were laparotomized by median section and the hepatic left lobes were exposed and sharply transected with a scalpel to about 1 cm to induce hemorrhage.\nAfter confirming exudative hemorrhage from the incision, the blood was removed as much as possible with gauze and the hepatic incision was treated with aqueous peptide solution.\nThe gelled aqueous peptide solution was removed 1 minute after treatment using physiological saline, and the presence of any hemorrhage from the hepatic incision was visually confirmed."}, "[1]": {"assay": "Self-assembly of aqueous peptide solution with rabbit bile (Example 10)", "type": "physicochemical", "conditions": "covered with rabbit bile, approximately 30 seconds", "experimental": "as §1\nThe rabbits were laparotomized by median section, and bile was sampled from the gallbladder using a 23 G injection needle (Terumo Corp.).\nDroplets of each aqueous peptide solution before self-assembly were prepared (diameter: approximately 5-8 mm), and the sampled bile was gently poured thereover so as to cover the aqueous peptide solution."}, "rabbit abdominal aorta [2]": {"test_system": "rabbit abdominal aorta", "assay": "Rabbit abdominal aorta injection needle perforation model (Example 1)", "type": "in vivo", "conditions": "for hemostatic effect (hemorrhage visually examined): after release of clamp", "experimental": "as §1\n(§2) The rabbits were laparotomized by median section. Approximately 10 cm of the abdominal aorta and portal vein stem was exposed, each blood vessel was ablated from the surrounding tissue, and the abdominal aorta was punctured with a 23 G injection needle (Terumo Corp.) while the portal vein stem was punctured with a 26 G injection needle (Terumo Corp.).\n(§3) Upon confirming hemorrhage, blood flow at the peripheral end and central end was clamped with a hemostatic clamp, and after removing the hemorrhaged blood with physiological saline and gauze, it was immediately treated with the aqueous peptide solution.\n(§4) After 1-2 minutes of treatment, blood flow was released and the presence of hemorrhage from the puncture site was visually examined."}, "rabbit portal vein stem [3]": {"test_system": "rabbit portal vein stem", "assay": "Rabbit portal vein stem injection needle perforation model (Example 1)", "type": "in vivo", "experimental": "as §1, §2, §3, §4"}, "resected liver surface": {"test_system": "resected liver surface", "assay": "Rabbit partial liver resection model (Example 2)", "type": "in vivo", "conditions": "for hemorrhage from cut surface after rinsing with physiological saline: FIG. 2; for rabbits showing complete hemostasis: partial liver resection", "experimental": "as §1\nThe rabbits were laparotomized by median section, and the hepatic left or right lobe was sharply excised to a size of approximately 5 cm width×3 cm length from the edge using a scalpel, to prepare a liver section.\nBlood flow was released 1-2 minutes after treatment, the aqueous peptide solution that was gelled was removed by physiological saline, and the presence of any hemorrhage from the resected liver surface s was visually confirmed.\nThe resected liver surface in which a hemostatic effect was seen were fixed with 20% formalin and histopathologically evaluated by HE staining."}, "[4]": {"test_system": "abdominal aorta of rabbits with reduced blood clotting function", "assay": "Abdominal aorta injection needle perforation model of rabbits with suppressed blood clotting function (heparin) (Example 3)", "type": "in vivo, rabbit", "conditions": "for Observations: heparin 1,000 units", "experimental": "as §1\nThe rabbits were laparotomized by median section. Approximately 10 cm of the abdominal aorta was exposed, the blood vessel was ablated from the surrounding tissue, and the vessel was punctured with a 26 G, 25 G or 23 G injection needle (Terumo Corp.).\nUpon confirming hemorrhage, blood flow at the peripheral end and center end was clamped with a hemostatic clamp, and after removing the hemorrhaged blood with physiological saline and gauze, it was immediately treated with the aqueous peptide solution.\n(§5) After 1-2 minutes of treatment, blood flow was released and the presence of hemorrhage was visually examined."}, "rabbit abdominal aorta [5]": {"test_system": "rabbit abdominal aorta", "assay": "Rabbit abdominal aorta injection needle perforation model, sugar-containing solutions (Example 4)", "type": "in vivo", "experimental": "as §1\nas §2, with “with a 26 G, 25 G or 23 G” for “with a 23 G”\nas §5"}, "rabbit bile duct wall": {"test_system": "rabbit bile duct wall", "assay": "Rabbit bile duct injection needle perforation model (Example 6)", "type": "in vivo", "conditions": "26 G needle", "experimental": "as §1\nThe rabbits were laparotomized by median section. Approximately 10 cm of the bile duct was exposed, and after ablation from the surrounding tissue, the bile duct was punctured with a 26 G injection needle.\nAfter confirming discharge of bile and continuous flow of bile, the bile flow was blocked with a hemostatic clamp.\nThe leaked bile was removed with physiological saline and gauze, and then treated with 3% aqueous peptide solution.\nAfter 2 minutes of treatment, bile flow blockage was released and the presence of bile flow from the puncture site was visually examined."}, "[6]": {"test_system": "canine intravesical tumor / vesical mucosa", "assay": "Canine intravesical tumorectomy, submucosal injection (Example 7)", "type": "in vivo, dog", "experimental": "Canine intravesical tumorectomy was carried out under general anesthesia management, by the following procedure.\nAfter hypogastric incision with an electrocautery scalpel (Erbe, Inc.), the electrocautery scalpel was used for incision of the bladder to expose the intravesical tumor (pedunculated tumor with a base site diameter of approximately 0.5 cm that is elevated from the vesical mucosa).\n3% Aqueous peptide solution was submucosally injected around the tumor base in 4 injections of 0.5 mL each, and elevation of the tumor on the mucosa was confirmed.\nAfter elevating the tumor, the tumor was excised with an electronic scalpel.\nThe time from aqueous peptide solution injection to complete tumor excision was approximately 2 minutes."}, "rat portal vein": {"test_system": "rat portal vein", "assay": "Rat portal vein embolization (Example 11)", "type": "in vivo", "conditions": "4 mL injected through portal vein stem, liver extracted after 5 minutes, HE staining", "experimental": "The rats were subjected to inhalation anesthesia with diethyl ether (Kishida Chemical Co., Ltd.).\nThe rats were laparotomized by median section and the portal veins were exposed.\nA 4 mL portion of aqueous peptide solution was injected through the portal vein stem with a 26 G injection needle (Terumo Corp.), and hemorrhage from the puncture site was immediately arrested with aqueous peptide solution.\nThe livers were extracted 5 minutes after injection and immediately fixed with 10% formalin (Wako Pure Chemical Industries, Ltd.).\nThe tissue was stained with haematoxylin eosin (HE) 1 week after fixing."}, "rabbit portal vein stem [7]": {"test_system": "rabbit portal vein stem", "assay": "Rabbit portal vein stem injection needle perforation model, sugar-containing solutions (Example 4)", "type": "in vivo", "experimental": "as §1\nas §2, with “with a 26 G, 25 G or 23 G” for “with a 23 G”\nas §5"}, "[8]": {"test_system": "rabbit gastric mucosa incision", "assay": "Rabbit gastric mucosa incision model (Example 8)", "type": "in vivo", "conditions": "1 minute after treatment, after rinsing with physiological saline", "experimental": "as §1\nThe rabbits were laparotomized by median section and the stomachs were incised, after which the gastric mucosa was exposed and sharply incised with a scalpel to about 1 cm to induce hemorrhage.\nAfter confirming blood oozing from the incision, the blood was removed as much as possible with gauze and the gastric mucosa incision was treated with aqueous peptide solution.\nThe gelled aqueous peptide solution was removed 1 minute after treatment using physiological saline, and the presence of any hemorrhage from the gastric mucosa incision was visually confirmed."}}, "note": "“Also recorded” adds a separate entry of the source. No end group written: not given here."}
{"substance": "Ac-(IEIK)3I-CONH2 [1% IEIK13 aqueous peptide solution]", "values": [{"measurement": "hemostatic effect (hemorrhage from hepatic incision)", "setting": "rabbit hepatic incision", "value": "no hemorrhage observed from incision site"}, {"measurement": "hemostatic effect (hemorrhage from hepatic incision)", "setting": "rabbit hepatic incision; listed as IEIK13 aqueous peptide solution", "value": "no hemorrhage was observed"}, {"measurement": "bile-induced self-assembly", "setting": "[1]", "value": "self-assembly confirmed"}]}
{"substance": "Ac-(KLDL)3-CONH2 (Ac-KLDLKLDLKLDL-NH2) [1% KLD aqueous peptide solution]", "values": [{"measurement": "hemostatic effect (hemorrhage from hepatic incision)", "setting": "rabbit hepatic incision", "value": "no hemorrhage observed from incision site"}, {"measurement": "hemostatic effect (hemorrhage from hepatic incision)", "setting": "rabbit hepatic incision; listed as KLD aqueous peptide solution", "value": "no hemorrhage was observed"}, {"measurement": "bile-induced self-assembly", "setting": "[1]", "value": "self-assembly confirmed"}]}
{"substance": "Ac-(RADA)4-NH2 [1.5% PuraMatrix aqueous peptide solution]", "values": [{"measurement": "bile-induced self-assembly", "setting": "[1]", "value": "self-assembly confirmed"}]}
{"substance": "Ac-(RADA)4-NH2 [1% aqueous peptide solution] (Ac-RADARADARADARADA-NH2)", "values": [{"measurement": "hemostatic effect (hemorrhage visually examined)", "setting": "rabbit abdominal aorta [2]", "value": "hemostasis was not complete; also recorded: resumed hemorrhage following declamp"}, {"measurement": "hemostatic effect (hemorrhage visually examined)", "setting": "rabbit portal vein stem [3]", "value": "persistent phleborrhagia"}, {"measurement": "hemorrhage from cut surface after rinsing with physiological saline", "setting": "resected liver surface", "value": "no hemorrhage observed from cut surface"}, {"measurement": "rabbits showing complete hemostasis", "setting": "resected liver surface", "value": "two of two"}]}
{"substance": "Ac-(RADA)4-NH2 [3% aqueous peptide solution] (Ac-RADARADARADARADA-NH2)", "values": [{"measurement": "rabbits demonstrating complete hemostasis", "setting": "rabbit abdominal aorta [2]", "value": "two of two"}, {"measurement": "hemostatic effect (hemorrhage visually examined)", "setting": "rabbit abdominal aorta [2]", "value": "completely hemorrhage-arrested blood vessel"}, {"measurement": "cases demonstrating complete hemostasis", "setting": "rabbit portal vein stem [3]", "value": "two of two"}, {"measurement": "hemorrhage from cut surface after rinsing with physiological saline", "setting": "resected liver surface", "value": "hemorrhage observed from cut surface"}, {"measurement": "rabbits showing complete hemostasis", "setting": "resected liver surface", "value": "1 of 4"}, {"measurement": "Observations", "setting": "[4]; 23 G needle", "value": "Complete hemostasis"}, {"measurement": "Observations", "setting": "[4]; 25 G needle", "value": "Complete hemostasis"}, {"measurement": "Observations", "setting": "[4]; 26 G needle", "value": "Complete hemostasis"}, {"measurement": "hemostatic effect (hemorrhage visually examined)", "setting": "[4]; heparin-treated rabbits, 26 G, 25 G and 23 G needle perforation", "value": "complete hemostasis; also recorded: perivascular hemorrhage of (b) not seen after declamp"}, {"measurement": "Observation", "setting": "rabbit abdominal aorta [5]; 23 G needle", "value": "Complete"}, {"measurement": "Observation", "setting": "rabbit abdominal aorta [5]; 25 G needle", "value": "Complete"}, {"measurement": "Observation", "setting": "rabbit abdominal aorta [5]; 26 G needle", "value": "Complete"}, {"measurement": "Observations", "setting": "rabbit bile duct wall", "value": "Aqueous peptide solution gelled"}, {"measurement": "bile duct wall occlusion effect (bile leakage)", "setting": "rabbit bile duct wall", "value": "complete bile duct wall occlusion effect; also recorded: bile leakage of (b) not observed around bile duct"}, {"measurement": "hemorrhage at excision site after tumor excision", "setting": "[6]; excision by electrocautery", "value": "no hemorrhage at excision site after tumor excision"}, {"measurement": "hemorrhage at excision site during tumor excision", "setting": "[6]; excision by electrocautery", "value": "no hemorrhage at excision site during tumor excision"}, {"measurement": "mucosal swelling (elevation) of excision site", "setting": "[6]; submucosal injection, 4 injections of 0.5 mL", "value": "swelling of affected area confirmed"}, {"measurement": "portal vein embolization", "setting": "rat portal vein", "value": "Embolization of portal vein confirmed"}]}
{"substance": "1% IEIK9 aqueous peptide solution: 1% aqueous peptide solution, peptide sequence IEIK9 (SEQ ID NO: 4) (Ac-IEIKIEIKI)", "values": [{"measurement": "hemostatic effect (hemorrhage from hepatic incision)", "setting": "rabbit hepatic incision", "value": "hemorrhage observed from incision site"}, {"measurement": "hemostatic effect (hemorrhage from hepatic incision)", "setting": "rabbit hepatic incision; listed as IEIK9 aqueous peptide solution", "value": "no hemostatic effect"}, {"measurement": "bile-induced self-assembly", "setting": "[1]", "value": "virtually no self-assembly seen"}]}
{"substance": "Ac-(RADA)4-NH2 (Ac-RADARADARADARADA-NH2) [2% aqueous peptide solution]", "values": [{"measurement": "hemostatic effect (compared between the solutions)", "setting": "rabbit portal vein stem [7]; portal vein stem 26 G needle perforation", "value": "equivalent"}, {"measurement": "Observation", "setting": "rabbit portal vein stem [7]; portal vein stem, 26 G needle", "value": "Complete"}, {"measurement": "hemorrhage from gastric mucosa incision", "setting": "[8]", "value": "no hemorrhage from incision site"}]}
